How the values were obtained:
GSK3-beta / beta-catenin = experiment: Western blotting of pGSK3-beta, GSK3-beta, pCatenin and Catenin in HaCaT; format: cell-based, human; settings: pachastrissamine 10 μg/ml, LiCl 300 nM, 30 minutes, FIG. 5A
Method: The pachastrissamine's effect on beta-catenin protein expression was researched. In the same manner as described in Example 1, a HaCaT cell line was cultured.

HaCaT cell = experiment: Phase-contrast microscope morphology analysis of surviving cells; format: cell-based, human; settings: lithium chloride only, 300 nM; 24 hours; FIG. 2D
Method: HaCaT, B16F10 and A375 cell lines were cultured in the same manner as described in Example 1. The cultured HaCaT cell line was plated onto a 60 mm plate at a concentration of 5×10^4 cells/well, and cultured in a CO2 incubator (37° C., 5%) for 24 hours. The cultured respective cells were divided into 4 groups. One group was added with only pachastrissamine (PA) at a concentration of 10 μg/ml; another group was added with lithium chloride (apoptosis inhibiting material) (at a final concentration of 300 nM) as well as pachastrissamine at a concentration of 10 μg/ml (PA+Li); and a third group was added with only lithium chloride (Li). The last group was a negative control group (Con) and was added with nothing. These groups were cultured in a CO2 incubator (37° C., 5%) for 24 hours, and then the number of cells were measured in the same manner as described in Example 2-2.
The four groups of HaCaT cell samples were washed with PBS, and then surviving cells were subjected to morphology analysis through a phase-contrast microscope (see FIG. 2f).

FoxO3a = experiment: Western blotting of FoxO3a protein expression in HaCaT; format: cell-based, human; settings: for level of protein expression of FoxO3a, single material: treated as in Example 3-2, compared to negative control, FIG. 4E
Method: A HaCaT cell line was cultured in the same manner as described in Example 1. […] Then, western blotting was carried out by using FoxO3a antibody as a primary antibody.
Then, western blotting was carried out by using FoxO3a antibody as a primary antibody so as to carry out comparative analysis on the level of protein expression.

AKT = experiment: Western blotting of AKT phosphorylation; format: cell-based; settings: HaCaT, B16F10, A375; 10 μg/ml pachastrissamine, 5 μg/ml phytosphingosine; 30 minutes; FIGS. 3A, 3B
Method: HaCaT, B16F10 and A375 cell lines were cultured in the same manner as described in Example 1. […] 30 minutes later, and 60 minutes later, each of the cell lines was resuspended in RIPA buffer [12 mM EDTA, 137 mM NaCl, 20 mM Tris-HCl (pH 8.0), 1 mM Na3VO4 (Sigma-Aldrich, USA) 10 mM NaF (Sigma), 1 mM PMSF (Sigma), 1% Triton X-100, 10% glycerol, protease inhibiting cocktail (Roche, Germany)], and then put on ice for 30 minutes so that the cells can be completely lysed. The lysate was centrifuged at 14000 rpm for 30 minutes, and the supernatant was collected. A BCA protein analysis kit (Pierce, Rockford, Ill.) was used to determine the concentration of each sample, and the sample was subjected to electrophoresis (SDS-PAGE). Western blotting was carried out on the protein isolated by the electrophoresis. After electrophoresis of the sample, the protein was transferred to a polyvinylidene fluoride membrane (Pall Corporation). Then, after blocking the membrane at room temperature for one hour using 5% BSA solution (Amresco, USA), it was treated with primary antibodies and reaction was carried out for 12 hours at 4° C. The primary antibodies were AKT antibody and Actin antibody (Cell Signaling Technology, Beverly, Mass.), which are antibodies associated in cell proliferation-related signaling. After reaction with primary antibodies, it was washed for about 30 minutes and further reacted for 1 hour at room temperature by treating with HRP-conjugated secondary antibodies. Then, after washing sufficiently for over 30 minutes, protein was identified using an ECL detection kit (intron Biotechnology).

HaCaT cell line = experiment: MTT cell viability analysis (cytotoxicity), HaCaT; format: cell-based, human; settings: 0, 0.9, 1.8, 3.7, 7.5, 10 μg/ml, 24 hours, FIG. 1
Method: (§1) Pachastrissamine's cytotoxicity on a HaCaT cell line and a malignant melanoma cell line was researched through MTT cell viability analysis.
(§2) First, each of a HaCaT cell line (German Cancer Research, obtained from prof. N. Fuseni, Germany), and two kinds of malignant melanoma cell lines, B16F10 (B16) and A375 were inoculated into a DMEM (Dulbecco's Modified Eagle's Medium) culture medium added with 10% FBS (Thermo Fisher Scientific Inc.), 100 unit/ml penicillin, and 100 μg/ml streptomycin, and then cultured in a CO2 incubator (Form a Scientific, Inc.) (37° C., 5%).
(§3) The cultured HaCaT, B16F10, and A375 cells were plated onto a 96-well plate at a concentration of 5×10^4 cells/well, and cultured in a CO2 incubator (37° C., 5%) for 24 hours. The cells in respective wells were treated with pachastrissamine and phytosphingosine at various concentrations of 0, 0.9, 1.8, 3.7, 7.5, 10 μg/ml, and cultured in a CO2 incubator (37° C., 5%) for 24 hours. After the culturing, in a state where the culture medium existed, each well was added with 5 mg/ml MTT reagent at a concentration of 20 μl/[…], and cultured in an incubator for 2 hours. After 2 hours, the culture medium was removed, and each well was added with 150 μl of DMSO (dimethyl sulfoxide). Then, a spectrophotometer was used to measure the absorbance at 540 nm, thereby analyzing the cell viability. Herein, the cell viability was represented as a relative value with respect to 100% of cell viability in a control group not treated with pachastrissamine and phytosphingosine.

[1] = tested on: malignant melanoma cell line A375; experiment: MTT cell viability analysis (cytotoxicity), A375; format: cell-based; settings: 0, 0.9, 1.8, 3.7, 7.5, 10 μg/ml, 24 hours, FIG. 1
Method: as §1, §2, §3

p-FoxO3a (Ser 253) = experiment: Western blotting of p-FoxO3a (Ser 253); format: cell-based; settings: HaCaT, A375, B16F10; 10 μg/ml; 30 minutes; FIGS. 4B, 4C
Method: In the same manner as described in Example 4-1, a HaCaT cell line and malignant melanoma cell lines (A375 and B16F10) were treated with pachastrissamine and phytosphingosine at a concentration of 10 μg/ml for 30 minutes and 60 minutes, respectively. Then, western blotting was carried out using p-FoxO3a (Ser 253) antibody.

[2] = tested on: malignant melanoma cell line B16F10; experiment: MTT cell viability analysis (cytotoxicity), B16F10; format: cell-based; settings: 0, 0.9, 1.8, 3.7, 7.5, 10 μg/ml, 24 hours, FIG. 1
Method: as §1, §2, §3

ERK = experiment: Western blotting of ERK activity (pERK) in HaCaT; format: cell-based, human; settings: pachastrissamine 10 μg/ml, U0126 20 nM, 30 minutes, FIG. 3C
Method: A HaCaT cell line was cultured in the same manner as described in Example 1. […] The last group was a negative control group (−) and was added with nothing.

FoxO3a / beta-catenin = settings: U0126, 30 minutes, FIG. 5C
Method: In a HaCaT cell line, pachastrissamine's effect on FoxO3a protein which can be degraded over-expression of beta-catenin was researched. In the same manner as described in Example 1, the HaCaT cell line was cultured. The cultured cells were transfected with beta-catenin so as to induce over-expression of beta-catenin. The cultured cells were plated onto a 6-well plate at a concentration of 3×10^5 cells/well and cultured for 24 hours. After the culturing, after about 12 hours of serum starvation, cells with over-expression of beta-catenin and other cells with transfection of vector were treated with U0126 (ERK inhibitor), and reacted for 30 minutes.

[Cl-].[Li+] [lithium chloride, reference compound]
phosphorylation of GSK3-beta (GSK3-beta / beta-catenin): GSK3-beta was phosphorylated | phosphorylation of beta-catenin (GSK3-beta / beta-catenin): inhibited the phosphorylation of beta-catenin | cell division extent (HaCaT cell): increased

COc1cccc(-c2cc(=O)c3ccccc3o2)c1N [PD98059, reference compound]
level of protein expression of FoxO3a, single material (FoxO3a): significantly increased

CCCCCCCCCCCCCC[C@@H](O)[C@@H](O)[C@@H](N)CO [phytosphingosine, reference compound]
phosphorylation of AKT after 30 minutes (AKT): reduction of phosphorylation of AKT | protein expression level of FoxO3a compared to control group (FoxO3a; 5 and 10 μg/ml, 24 hours, FIG. 4A): increased | cell viability (number of surviving cells) with increasing concentration (HaCaT cell line): the number of surviving cells was reduced | cell viability (number of surviving cells) with increasing concentration [1]: the number of surviving cells was reduced | amount of expressed p-FoxO3a after 30 minutes (p-FoxO3a (Ser 253)): reduced | cell viability (number of surviving cells) with increasing concentration [2]: the number of surviving cells was reduced

N#CC(=C(/N)Sc1ccccc1N)/C(C#N)=C(\N)Sc1ccccc1N [U0126, reference compound]
level of protein expression of FoxO3a, single material (FoxO3a): significantly increased | ERK activation (phosphorylation of ERK) (ERK): almost completely inhibited the phosphorylation of ERK | expression level of FoxO3a protein reduced by over-expression of beta-catenin (FoxO3a / beta-catenin; HaCaT transfected with beta-catenin): restored | protein expression level of beta-catenin (FoxO3a / beta-catenin; HaCaT with or without over-expression of beta-catenin): no effect
